# US11000033B2, “Ketone or oxime compound, and herbicide” (NISSAN CHEMICAL CORPORATION, priority 2014, dated 2021)
# Tests used:
# Type in all cases: in vivo
# Scirpus juncoides [1] = assay: Test Example 1: herbicidal activity, application before weed generation in submerged conditions (symbol B); conditions: application herbicide amount 320 g/ha
# Method in brief: (§1)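 Weed control was rated three weeks after treatment on a 0–5 scale, from 5% or lower up to 90% or more. Pre-emergence water-surface application of diluted emulsion at a predetermined rate was made on the day of sowing, in flooded (4 cm water) pots containing rice seedlings, kept at 25–30 °C under glass.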
# Monochoria vaginalis = assay: Test Example 1: herbicidal activity, application before weed generation in submerged conditions (symbol C); conditions: application herbicide amount 320 g/ha
# Method in brief: as §1
# Scirpus juncoides [2] = assay: Test Example 2: herbicidal activity, application during weed generation in submerged conditions (symbol B); conditions: Table 23; application herbicide amount 320 g/ha; grade 0-5 by criteria of Test Example 1
# Method in brief: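 Visual herbicidal ratings, taken three weeks after dosing, reflect post-emergence water-surface application to seedlings at one to two leaves. Conditions: co-sown weeds in alluvial soil flooded to 4 cm, greenhouse held at 25° C. to 30° C.; compound given as water-diluted emulsion at a fixed herbicide amount.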
# Avena fatua = assay: Test Example 4: herbicidal effect by soil treatment (symbol I); conditions: application herbicide amount 320 g/ha
# Method in brief: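 Seeds were sown in sterilized diluvial soil, covered with about 1.5 cm of soil, and the soil surface was sprayed with a water-diluted emulsion of the compound at a predetermined rate. Plants grew in a greenhouse at 25° C. to 30° C.; effects were scored visually 3 weeks after application.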
# corn [3] = assay: Test Example 4: effect on crop by soil treatment (symbol c); conditions: application herbicide amount 320 g/ha
# Method in brief: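 Diluvial soil (sterilized) in boxes; seeds placed spot-wise alongside weed species; ~1.5 cm covering soil. Greenhouse, 25–30° C.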
# rice = assay: Test Example 4: effect on crop by soil treatment (symbol b); conditions: application herbicide amount 320 g/ha
# Method in brief: (§2)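 Crop seed is sown in spots together with several weed species in a box of sterilized diluvial soil. It is covered by about 1.5 cm of soil and kept in a greenhouse held between 25° C. and 30° C.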
# rapeseed = assay: Test Example 4: effect on crop by soil treatment (symbol g); conditions: application herbicide amount 320 g/ha
# Method in brief: as §2
# Digitaria ciliaris = assay: Test Example 5: herbicidal effect by foliage application, plastic box (symbol F); conditions: 320 g/ha, 3 weeks after application
# Method in brief: (§3)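 Leaf-applied emulsion, water-diluted to a preset herbicide dose, on two-week-old seedlings raised in a 25° C. to 30° C. greenhouse; injury rated at 3 weeks using earlier criteria.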
# Lolium multiflorum Lam. = assay: Test Example 5: herbicidal effect by foliage application, plastic box (symbol K); conditions: 320 g/ha, 3 weeks after application
# Method in brief: as §3
# Chenopodium album = assay: Test Example 5: herbicidal effect by foliage application, plastic box (symbol O); conditions: 320 g/ha, 3 weeks after application
# Method in brief: as §3
# Galium spurium = assay: Test Example 5: herbicidal effect by foliage application, plastic box (symbol Q); conditions: 320 g/ha, 3 weeks after application
# Method in brief: as §3
# Veronica persica = assay: Test Example 5: herbicidal effect by foliage application, plastic box (symbol R); conditions: 320 g/ha, 3 weeks after application
# Method in brief: as §3
# corn [4] = assay: Test Example 5: effect on crop by foliage application, plastic box (symbol c); conditions: 320 g/ha, 3 weeks after application
# Method in brief: (§4)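 Soil: sterilized diluvial. Container: plastic box, 21 × 13 cm, 7 cm deep. Sowing: spot-like, ~1.5 cm cover. Growth: greenhouse, 25° C. to 30° C.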
# soybean = assay: Test Example 5: effect on crop by foliage application, plastic box (symbol d); conditions: 320 g/ha, 3 weeks after application
# Method in brief: as §4
SMILES,"Herbicidal effect grade, B: Scirpus juncoides (Scirpus juncoides [1])","Herbicidal effect grade, C: Monochoria vaginalis (Monochoria vaginalis)","Herbicidal effect grade, B: Scirpus juncoides (Scirpus juncoides [2])","I: Avena fatua, herbicidal effect grade (Avena fatua)","c: corn, effect on crop grade (corn [3])","b: directly sowed rice plant, effect on crop grade (rice)","g: rapeseed, effect on crop grade (rapeseed)","F: Digitaria ciliaris, herbicidal effect (criteria of Test Example 1) (Digitaria ciliaris)","K: Lolium multiflorum Lam., herbicidal effect (criteria of Test Example 1) (Lolium multiflorum Lam.)","O: Chenopodium album, herbicidal effect (criteria of Test Example 1) (Chenopodium album)","Q: Galium spurium, herbicidal effect (criteria of Test Example 1) (Galium spurium)","R: Veronica persica, herbicidal effect (criteria of Test Example 1) (Veronica persica)","c: corn, effect on crop (criteria of Test Example 1) (corn [4])","d: soybean, effect on crop (criteria of Test Example 1) (soybean)",other results
CON=C(C)CC1CC(O)=C(c2c(C)cc(Oc3ccccc3)cc2C)C1=O (stereo not shown) [6-052],1 (Herbicidal ratio of 5% or higher and lower than 20%),0 (Herbicidal ratio of 5% or lower (almost no effect)),0 (Herbicidal ratio of 5% or lower (almost no effect)),0 (Herbicidal ratio of 5% or lower (almost no effect)),0 (Herbicidal ratio of 5% or lower (almost no effect)),1 (Herbicidal ratio of 5% or higher and lower than 20%),3 (Herbicidal ratio of 40% or higher and lower than 70%),,,,,,,,"F: Digitaria ciliaris, herbicidal effect grade (Digitaria ciliaris): 5 (Herbicidal ratio of 90% or more (almost completely withered)); K: Lolium multiflorum Lam., herbicidal effect grade (Lolium multiflorum Lam.): 5 (Herbicidal ratio of 90% or more (almost completely withered)); O: Chenopodium album, herbicidal effect grade (Chenopodium album): 0 (Herbicidal ratio of 5% or lower (almost no effect)); Q: Galium spurium, herbicidal effect grade (Galium spurium): 0 (Herbicidal ratio of 5% or lower (almost no effect)); R: Veronica persica, herbicidal effect grade (Veronica persica): 0 (Herbicidal ratio of 5% or lower (almost no effect)); c: corn, effect on crop grade (corn [4]): 3 (Herbicidal ratio of 40% or higher and lower than 70%); d: soybean, effect on crop grade (soybean): 0 (Herbicidal ratio of 5% or lower (almost no effect))"
CON=C(C)CC1CC(O)=C(c2c(C)cc(OC)cc2C)C1=O (stereo not shown) [6-055],1 (Herbicidal ratio of 5% or higher and lower than 20%),0 (Herbicidal ratio of 5% or lower (almost no effect)),2 (Herbicidal ratio of 20% or higher and lower than 40%),0 (Herbicidal ratio of 5% or lower (almost no effect)),5 (Herbicidal ratio of 90% or more (almost completely withered)),5 (Herbicidal ratio of 90% or more (almost completely withered)),0 (Herbicidal ratio of 5% or lower (almost no effect)),5 (Herbicidal ratio of 90% or more (almost completely withered)),5 (Herbicidal ratio of 90% or more (almost completely withered)),3 (Herbicidal ratio of 40% or higher and lower than 70%),3 (Herbicidal ratio of 40% or higher and lower than 70%),4 (Herbicidal ratio of 70% or higher and lower than 90%),5 (Herbicidal ratio of 90% or more (almost completely withered)),3 (Herbicidal ratio of 40% or higher and lower than 70%),
CON=C(C)CC1CC(O)=C(c2c(C)cc(C(C)=NOC)cc2C)C1=O (stereo not shown) [6-065],2 (Herbicidal ratio of 20% or higher and lower than 40%),3 (Herbicidal ratio of 40% or higher and lower than 70%),1 (Herbicidal ratio of 5% or higher and lower than 20%),4 (Herbicidal ratio of 70% or higher and lower than 90%),5 (Herbicidal ratio of 90% or more (almost completely withered)),5 (Herbicidal ratio of 90% or more (almost completely withered)),3 (Herbicidal ratio of 40% or higher and lower than 70%),5 (Herbicidal ratio of 90% or more (almost completely withered)),5 (Herbicidal ratio of 90% or more (almost completely withered)),1 (Herbicidal ratio of 5% or higher and lower than 20%),3 (Herbicidal ratio of 40% or higher and lower than 70%),3 (Herbicidal ratio of 40% or higher and lower than 70%),5 (Herbicidal ratio of 90% or more (almost completely withered)),1 (Herbicidal ratio of 5% or higher and lower than 20%),
CON=C(C)CC1CC(O)=C(c2c(C)cc(-n3cccn3)cc2C)C1=O (stereo not shown) [6-073],1 (Herbicidal ratio of 5% or higher and lower than 20%),1 (Herbicidal ratio of 5% or higher and lower than 20%),2 (Herbicidal ratio of 20% or higher and lower than 40%),3 (Herbicidal ratio of 40% or higher and lower than 70%),3 (Herbicidal ratio of 40% or higher and lower than 70%),5 (Herbicidal ratio of 90% or more (almost completely withered)),3 (Herbicidal ratio of 40% or higher and lower than 70%),5 (Herbicidal ratio of 90% or more (almost completely withered)),5 (Herbicidal ratio of 90% or more (almost completely withered)),3 (Herbicidal ratio of 40% or higher and lower than 70%),3 (Herbicidal ratio of 40% or higher and lower than 70%),3 (Herbicidal ratio of 40% or higher and lower than 70%),4 (Herbicidal ratio of 70% or higher and lower than 90%),0 (Herbicidal ratio of 5% or lower (almost no effect)),
CON=C(C)CC1CC(O)=C(c2c(C)cc(-n3cncn3)cc2C)C1=O (stereo not shown) [6-074],0 (Herbicidal ratio of 5% or lower (almost no effect)),0 (Herbicidal ratio of 5% or lower (almost no effect)),0 (Herbicidal ratio of 5% or lower (almost no effect)),0 (Herbicidal ratio of 5% or lower (almost no effect)),0 (Herbicidal ratio of 5% or lower (almost no effect)),3 (Herbicidal ratio of 40% or higher and lower than 70%),0 (Herbicidal ratio of 5% or lower (almost no effect)),0 (Herbicidal ratio of 5% or lower (almost no effect)),2 (Herbicidal ratio of 20% or higher and lower than 40%),0 (Herbicidal ratio of 5% or lower (almost no effect)),0 (Herbicidal ratio of 5% or lower (almost no effect)),0 (Herbicidal ratio of 5% or lower (almost no effect)),0 (Herbicidal ratio of 5% or lower (almost no effect)),0 (Herbicidal ratio of 5% or lower (almost no effect)),
